From article doi:10.1101/2022.05.18.492512v2 (biorxiv, 2022)
Numbering of substitutions follows the chain as printed.

Experiments:
ABCG5/G8 [1] = target: T1, ABCG5/G8 (Homo sapiens, UniProt Q9H221+Q9H222); experiment: [3H]cholesterol binding, Ni-NTA bead pull-down, scintillation counting
T1 sequence (Q9H222 1-651): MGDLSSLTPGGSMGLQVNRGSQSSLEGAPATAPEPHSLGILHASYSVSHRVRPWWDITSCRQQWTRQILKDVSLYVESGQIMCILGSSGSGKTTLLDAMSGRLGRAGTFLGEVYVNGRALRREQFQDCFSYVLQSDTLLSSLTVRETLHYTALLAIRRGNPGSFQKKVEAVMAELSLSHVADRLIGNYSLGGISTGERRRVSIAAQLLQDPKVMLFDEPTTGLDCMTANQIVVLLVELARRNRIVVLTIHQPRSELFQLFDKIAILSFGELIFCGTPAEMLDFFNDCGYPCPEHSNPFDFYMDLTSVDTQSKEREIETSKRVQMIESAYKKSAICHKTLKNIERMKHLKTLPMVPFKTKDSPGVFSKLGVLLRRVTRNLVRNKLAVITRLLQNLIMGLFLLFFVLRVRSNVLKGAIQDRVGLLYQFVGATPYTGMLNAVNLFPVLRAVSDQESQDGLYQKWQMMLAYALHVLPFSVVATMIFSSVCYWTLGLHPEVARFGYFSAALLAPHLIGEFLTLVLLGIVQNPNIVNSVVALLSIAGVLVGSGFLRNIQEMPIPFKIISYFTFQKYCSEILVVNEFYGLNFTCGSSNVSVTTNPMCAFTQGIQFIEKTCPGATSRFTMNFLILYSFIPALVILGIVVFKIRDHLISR
T1 sequence (Q9H221 1-673): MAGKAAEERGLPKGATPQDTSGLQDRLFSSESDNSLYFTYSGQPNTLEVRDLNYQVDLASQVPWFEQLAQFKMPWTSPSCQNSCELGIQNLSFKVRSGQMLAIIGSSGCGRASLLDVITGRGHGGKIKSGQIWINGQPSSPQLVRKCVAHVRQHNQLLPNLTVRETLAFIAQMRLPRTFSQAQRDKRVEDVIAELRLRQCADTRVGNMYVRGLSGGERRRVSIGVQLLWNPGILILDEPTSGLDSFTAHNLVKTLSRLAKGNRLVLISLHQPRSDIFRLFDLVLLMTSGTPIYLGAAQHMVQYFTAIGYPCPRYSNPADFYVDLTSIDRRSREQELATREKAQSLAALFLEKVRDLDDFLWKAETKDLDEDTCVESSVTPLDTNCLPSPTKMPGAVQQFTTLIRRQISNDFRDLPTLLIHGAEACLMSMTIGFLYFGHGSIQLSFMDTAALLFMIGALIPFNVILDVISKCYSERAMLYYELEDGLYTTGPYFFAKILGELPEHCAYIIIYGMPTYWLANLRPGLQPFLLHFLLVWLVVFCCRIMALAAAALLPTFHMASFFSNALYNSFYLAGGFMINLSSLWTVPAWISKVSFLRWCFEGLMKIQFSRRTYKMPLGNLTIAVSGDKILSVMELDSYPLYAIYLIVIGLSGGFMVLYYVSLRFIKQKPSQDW

ABCG5/G8 [2] = target: T2, ABCG5/G8 (Homo sapiens, UniProt Q9H221+Q9H222, Q9H222:A540F); experiment: as above
T2 sequence (Q9H222 1-651 A540F): T1 sequence (Q9H222 1-651) with A540F
T2 sequence (Q9H221 1-673): T1 sequence (Q9H221 1-673)

SMILES: CC(C)CCC[C@@H](C)[C@H]1CC[C@H]2[C@@H]3CC=C4C[C@@H](O)CC[C@]4(C)[C@H]3CC[C@]12C [cholesterol]
- Kd (ABCG5/G8 [1]): 1460 ± 280 nM
- Kd (ABCG5/G8 [2]): 1550 ± 10 nM
